The subject of series [1] is human liver microsomes (HLM). The experiment in a line: Inhibition of nicotine to nornicotine formation in pooled human liver microsomes. The class given is biochemical. The settings on record: nicotine 500 μM. (In general: Liver microsomes are a subcellular fraction often used to study metabolism.)
The target in the next series is T1, FMO1 (Homo sapiens, UniProt Q01740).
T1 sequence (Q01740 1-532): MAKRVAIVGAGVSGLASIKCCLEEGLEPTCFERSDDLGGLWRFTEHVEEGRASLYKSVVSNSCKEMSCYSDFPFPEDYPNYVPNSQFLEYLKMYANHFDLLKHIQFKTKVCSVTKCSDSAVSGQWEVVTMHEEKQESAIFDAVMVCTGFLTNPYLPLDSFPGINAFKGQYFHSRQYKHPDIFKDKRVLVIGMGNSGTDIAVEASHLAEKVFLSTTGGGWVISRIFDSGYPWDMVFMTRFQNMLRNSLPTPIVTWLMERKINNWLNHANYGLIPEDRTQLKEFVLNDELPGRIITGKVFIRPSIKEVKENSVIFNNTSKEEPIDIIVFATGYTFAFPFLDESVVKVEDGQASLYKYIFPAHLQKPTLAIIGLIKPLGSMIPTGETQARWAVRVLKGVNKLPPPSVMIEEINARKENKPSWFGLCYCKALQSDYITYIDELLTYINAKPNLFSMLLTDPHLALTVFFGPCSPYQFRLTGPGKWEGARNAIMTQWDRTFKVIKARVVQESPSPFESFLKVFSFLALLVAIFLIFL
The class given is biochemical. The settings on record: 1 or 10 μM cannabinoid; nicotine 1 mM; FMO1 microsomes.

The next series has as its target T2, CYP2A6 (Homo sapiens, UniProt P11509).
T2 sequence (P11509 1-494): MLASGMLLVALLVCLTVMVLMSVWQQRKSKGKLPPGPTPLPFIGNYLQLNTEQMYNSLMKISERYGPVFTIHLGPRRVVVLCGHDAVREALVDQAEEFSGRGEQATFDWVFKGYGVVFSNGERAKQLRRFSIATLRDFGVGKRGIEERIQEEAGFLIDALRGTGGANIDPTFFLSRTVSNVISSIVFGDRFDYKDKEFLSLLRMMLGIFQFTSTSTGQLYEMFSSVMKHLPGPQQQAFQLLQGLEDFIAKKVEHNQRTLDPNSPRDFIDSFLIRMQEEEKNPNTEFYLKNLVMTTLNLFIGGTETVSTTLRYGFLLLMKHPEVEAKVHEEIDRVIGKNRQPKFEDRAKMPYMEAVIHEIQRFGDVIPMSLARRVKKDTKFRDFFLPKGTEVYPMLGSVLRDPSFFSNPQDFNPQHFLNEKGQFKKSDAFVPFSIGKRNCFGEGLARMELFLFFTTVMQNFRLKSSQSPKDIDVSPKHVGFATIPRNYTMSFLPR
The class given is biochemical. To be noted: 10 μM inhibitor; cotinine substrate; CYP2A6 microsomes.

For a further series, the target named is T3, UGT1A4 (Homo sapiens, UniProt P22310).
T3 sequence (P22310 29-534): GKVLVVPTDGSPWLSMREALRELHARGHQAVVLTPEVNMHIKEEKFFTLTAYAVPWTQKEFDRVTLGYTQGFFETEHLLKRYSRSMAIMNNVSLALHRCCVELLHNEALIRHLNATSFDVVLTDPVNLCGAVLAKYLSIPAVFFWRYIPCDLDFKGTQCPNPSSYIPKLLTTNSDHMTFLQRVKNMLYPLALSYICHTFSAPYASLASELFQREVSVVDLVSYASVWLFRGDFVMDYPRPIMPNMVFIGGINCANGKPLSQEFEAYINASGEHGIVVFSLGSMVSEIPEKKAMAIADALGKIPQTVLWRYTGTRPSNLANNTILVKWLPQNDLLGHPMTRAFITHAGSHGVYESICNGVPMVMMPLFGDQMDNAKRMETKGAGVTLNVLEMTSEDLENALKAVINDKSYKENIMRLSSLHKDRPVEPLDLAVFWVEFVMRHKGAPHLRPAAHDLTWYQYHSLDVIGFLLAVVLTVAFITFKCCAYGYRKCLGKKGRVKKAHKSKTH
The class given is biochemical. The settings on record: UGT1A4 microsomes; nicotine or cotinine as substrate; screening.

In another series the target is T4, UGT1A9 (Homo sapiens, UniProt O60656).
T4 sequence (O60656 26-530): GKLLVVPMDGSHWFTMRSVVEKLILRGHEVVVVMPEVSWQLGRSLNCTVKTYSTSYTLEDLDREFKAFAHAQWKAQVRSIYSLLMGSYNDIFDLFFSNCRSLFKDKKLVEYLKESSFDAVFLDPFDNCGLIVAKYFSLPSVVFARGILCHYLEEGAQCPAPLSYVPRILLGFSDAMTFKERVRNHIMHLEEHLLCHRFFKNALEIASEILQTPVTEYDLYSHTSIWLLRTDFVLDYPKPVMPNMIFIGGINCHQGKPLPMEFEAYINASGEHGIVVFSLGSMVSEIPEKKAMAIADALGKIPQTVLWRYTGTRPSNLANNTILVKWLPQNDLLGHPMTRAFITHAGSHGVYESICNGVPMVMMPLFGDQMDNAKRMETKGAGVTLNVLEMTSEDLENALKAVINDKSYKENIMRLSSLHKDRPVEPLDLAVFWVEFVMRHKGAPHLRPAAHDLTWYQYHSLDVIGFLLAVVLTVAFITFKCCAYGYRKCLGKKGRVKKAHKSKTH
The class given is biochemical. To be noted: 3HC 30 mM; for decrease in 3HC-Gluc formation: UGT1A9 microsomes; for IC50: rec UGT1A9 microsomes.

The subject of series [2] is human liver microsomes (HLM). In words: Inhibition of 3HC to 3HC-Gluc formation in human liver microsomes. The class given is biochemical. To be noted: up to 100 μM CBD.
The next series concerns the target T5, UGT2B10 (Homo sapiens, UniProt P36537).
T5 sequence (P36537 24-528): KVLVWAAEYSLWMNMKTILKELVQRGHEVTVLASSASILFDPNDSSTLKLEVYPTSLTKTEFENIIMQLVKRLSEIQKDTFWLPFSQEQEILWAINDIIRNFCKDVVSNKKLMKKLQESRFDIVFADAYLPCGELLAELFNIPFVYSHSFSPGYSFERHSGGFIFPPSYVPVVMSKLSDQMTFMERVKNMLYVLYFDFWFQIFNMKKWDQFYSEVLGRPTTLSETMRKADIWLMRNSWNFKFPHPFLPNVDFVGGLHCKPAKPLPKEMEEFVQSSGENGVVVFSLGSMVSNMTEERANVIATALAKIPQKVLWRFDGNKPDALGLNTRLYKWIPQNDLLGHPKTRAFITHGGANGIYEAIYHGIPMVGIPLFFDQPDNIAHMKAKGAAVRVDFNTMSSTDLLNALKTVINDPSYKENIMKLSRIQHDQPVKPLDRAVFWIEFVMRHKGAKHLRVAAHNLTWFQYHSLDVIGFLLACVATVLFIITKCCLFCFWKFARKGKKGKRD
The settings on record: previous studies; cited from earlier work.

In another series the test system is cigarette smokers. To be noted: single 800 mg oral dose, compared with a placebo group; cited from earlier work.

Where two headings read alike, the source gives them in different places.

As usually defined, the IC50 is the concentration that inhibits the measured activity by half. A lower IC50 goes with greater potency.

In series [1], `C=C(C)[C@@H]1CCC(CO)=C[C@H]1c1c(O)cc(CCCCC)cc1O` [7-OH-CBD, 7-hydroxy-cannabidiol] came in with an IC50 of 7.9 ± 2.5 µM. Besides, at FMO1, the “inhibitory effect on NOX formation” value was “No inhibitory effect”. Further, on CYP2A6, the “inhibition of COX formation” value came out at 40%. Also, the “inhibition of nicotine-Gluc or cotinine-Gluc formation” value against UGT1A4 is recorded as “no significant inhibition”.

In the case of `C=C(C)[C@@H]1CCC(C)=C[C@H]1c1c(O)cc(CCCCC)cc1O` [CBD, cannabidiol], the IC50 was determined as 5.1 ± 1.1 µM in series [1]; 9.7 ± 1.5 µM on UGT1A9 (IC50, 3HC-Gluc formation, 2% BSA); 0.37 ± 0.06 µM on UGT1A9 (IC50,u (binding-corrected IC50), 3HC-Gluc formation, IC50 × fu,inc). The “decrease in 3HC-Gluc formation” value is on record as 55% on UGT1A9 (1 μM CBD) and 65% on UGT1A9 (10 μM CBD). Moreover, the “inhibition of 3HC-Gluc formation” value in series [2] is recorded as < 45%. In addition, at FMO1, the “inhibitory effect on NOX formation” value is on record as “No inhibitory effect”. At UGT1A4, the “inhibition of nicotine-Gluc or cotinine-Gluc formation” value is given as “no significant inhibition”. Further, on UGT2B10, the “inhibition of nicotine-Gluc formation by UGT2B10” value was “does not inhibit”. Besides, in the series with cigarette smokers, the “effect on cigarette cues” value was “reduced the salience and pleasantness of cigarette cues”.

These data come from paper PMC9945182 (Chemical Research in Toxicology, 2023).
